Structures are written as SMILES.

Experiment [1] deals with T1, Bifunctional 3'-5' exonuclease/ATP-dependent helicase WRN [480-1251] (UniProt Q14191).
T1 construct: 480-1251
Description: Biochemical Activity Assays.

Experiment [2] deals with Bifunctional 3'-5' exonuclease/ATP-dependent helicase WRN (Homo sapiens, UniProt Q14191). The experiment in a line: ADP-Glo Kinase Assay. The procedure:
ATPase activity was measured using the ADP-Glo Kinase Assay following the manufacturers recommended protocol.
For orientation: ADP-Glo turns the ADP formed in a reaction into a luminescent signal.

Sequence of Bifunctional 3'-5' exonuclease/ATP-dependent helicase WRN (Q14191 whole entry): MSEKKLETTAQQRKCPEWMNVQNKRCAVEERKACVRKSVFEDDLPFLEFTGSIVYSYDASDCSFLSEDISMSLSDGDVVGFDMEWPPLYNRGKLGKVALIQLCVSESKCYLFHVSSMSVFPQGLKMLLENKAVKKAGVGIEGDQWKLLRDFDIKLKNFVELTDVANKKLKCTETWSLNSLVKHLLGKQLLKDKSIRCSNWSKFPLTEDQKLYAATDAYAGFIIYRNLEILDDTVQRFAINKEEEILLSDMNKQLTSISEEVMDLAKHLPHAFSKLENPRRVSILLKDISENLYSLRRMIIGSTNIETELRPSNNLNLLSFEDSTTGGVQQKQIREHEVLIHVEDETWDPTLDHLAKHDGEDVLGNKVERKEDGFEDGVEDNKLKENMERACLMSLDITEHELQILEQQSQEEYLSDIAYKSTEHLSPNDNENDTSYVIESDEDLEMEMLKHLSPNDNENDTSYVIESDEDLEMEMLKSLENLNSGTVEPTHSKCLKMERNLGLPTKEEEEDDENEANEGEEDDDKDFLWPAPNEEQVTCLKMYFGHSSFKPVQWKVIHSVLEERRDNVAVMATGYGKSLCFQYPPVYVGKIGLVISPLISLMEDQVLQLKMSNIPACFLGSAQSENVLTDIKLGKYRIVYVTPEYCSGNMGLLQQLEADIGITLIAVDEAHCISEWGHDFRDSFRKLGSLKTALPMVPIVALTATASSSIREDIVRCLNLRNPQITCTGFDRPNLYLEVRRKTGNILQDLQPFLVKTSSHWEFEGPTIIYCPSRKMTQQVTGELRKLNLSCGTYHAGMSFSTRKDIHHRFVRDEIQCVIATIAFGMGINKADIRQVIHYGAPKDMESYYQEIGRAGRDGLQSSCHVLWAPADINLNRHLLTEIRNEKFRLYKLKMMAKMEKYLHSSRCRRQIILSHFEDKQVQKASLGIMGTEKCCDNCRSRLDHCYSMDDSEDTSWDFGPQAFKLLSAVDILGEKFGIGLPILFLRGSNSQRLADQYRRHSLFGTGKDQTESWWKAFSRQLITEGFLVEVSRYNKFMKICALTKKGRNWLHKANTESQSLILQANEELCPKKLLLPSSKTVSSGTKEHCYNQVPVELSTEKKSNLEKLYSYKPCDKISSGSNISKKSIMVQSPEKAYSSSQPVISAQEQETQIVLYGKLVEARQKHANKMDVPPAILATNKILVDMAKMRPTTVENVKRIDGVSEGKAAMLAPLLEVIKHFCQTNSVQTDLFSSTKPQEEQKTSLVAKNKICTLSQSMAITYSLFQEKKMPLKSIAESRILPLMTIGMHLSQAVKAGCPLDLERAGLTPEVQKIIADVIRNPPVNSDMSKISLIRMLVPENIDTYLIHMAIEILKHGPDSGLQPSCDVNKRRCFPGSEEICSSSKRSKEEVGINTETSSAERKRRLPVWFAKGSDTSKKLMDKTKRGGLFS
T1 sequence (Q14191 480-1251): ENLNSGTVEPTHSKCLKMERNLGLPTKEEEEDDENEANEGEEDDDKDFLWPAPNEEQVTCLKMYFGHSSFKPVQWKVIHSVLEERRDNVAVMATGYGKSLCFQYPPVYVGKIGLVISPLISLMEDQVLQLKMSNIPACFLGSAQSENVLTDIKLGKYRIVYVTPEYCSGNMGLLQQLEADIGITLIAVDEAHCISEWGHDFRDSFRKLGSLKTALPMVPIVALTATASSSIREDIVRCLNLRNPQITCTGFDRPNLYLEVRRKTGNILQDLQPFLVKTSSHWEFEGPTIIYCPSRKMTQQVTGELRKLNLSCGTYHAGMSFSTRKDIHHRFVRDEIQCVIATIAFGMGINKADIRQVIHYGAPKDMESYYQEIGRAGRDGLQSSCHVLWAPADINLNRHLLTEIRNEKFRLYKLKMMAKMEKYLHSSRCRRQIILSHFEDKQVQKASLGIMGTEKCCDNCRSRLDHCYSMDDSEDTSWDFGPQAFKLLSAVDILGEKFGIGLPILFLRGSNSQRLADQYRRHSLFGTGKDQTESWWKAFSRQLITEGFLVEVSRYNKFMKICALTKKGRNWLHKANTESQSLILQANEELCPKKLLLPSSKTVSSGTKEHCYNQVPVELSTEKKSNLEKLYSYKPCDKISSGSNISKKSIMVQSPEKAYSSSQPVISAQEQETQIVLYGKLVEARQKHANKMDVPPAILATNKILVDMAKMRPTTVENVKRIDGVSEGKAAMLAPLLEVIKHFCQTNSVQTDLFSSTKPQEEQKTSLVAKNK

A word on the IC50: it is the concentration that inhibits the measured activity by half. Read a high IC50 as weaker potency in that assay. Turning to `CCc1c(N2CCN(C(=O)c3ncnc(C)c3O)CC2)c(=O)n2nc(-c3ccc([S+](C)[O-])cc3)nc2n1CC(=O)Nc1ccc(C(F)(F)F)cc1Cl` (stereo not given) [WO2025049746, Example 333], the IC50 in experiment [1] and in experiment [2] was 28 nM throughout.
`CCc1c(N2CC[C@H](C)N(C(=O)c3ncnc(C)c3O)CC2)c(=O)n2nc(C3=CCOCC3)nc2n1CC(=O)Nc1ccc(C(F)(F)F)cc1Cl` [WO2025049746, Example 342]: the concentration for half-maximal inhibition (IC50) in experiment [1] was 420 nM; in experiment [2], 1800 nM.
For `CCc1c(N2CCN(C(=O)c3ncnc(C)c3O)CC2)c(=O)n2nc(-c3cccc4c3OCO4)nc2n1CC(=O)Nc1ccc(SC(F)(F)F)cc1` [WO2025049746, Example 394], the IC50 was determined as 593 nM in experiment [1] and 760 nM in experiment [2].
For `CCc1c(N2CCN(C(=O)c3ncnc(C)c3O)CC2)c(=O)n2nc(-c3cccc4c3CCCO4)nc2n1CC(=O)Nc1ccc(C(F)(F)F)cc1Cl` [WO2025049746, Example 159], the half-inhibitory concentration (IC50) is 82 nM in experiment [1] and 231 nM in experiment [2].
`CCc1c(N2CCN(C(=O)c3nccc4nc[nH]c34)CC2)c(=O)n2nc(-c3ccc4c(c3)CCOC4)nc2n1CC(=O)Nc1ccc(C(F)(F)F)cc1Cl` [WO2025049746, Example 92]: the values for the IC50 in experiment [1] and in experiment [2] were 23 nM and 27.9 nM, respectively.
Taken in the same sequence, the figures for `CCc1c(N2CCN(C(=O)c3ncnc(C)c3O)CC2)c(=O)n2nc(-c3cccc4c3OCCO4)nc2n1CC(=O)Nc1ccc(C(F)(F)F)cc1Cl` [WO2025049746, Example 2] were 18.7 nM and 27.1 nM.
As to `CCc1c(N2CCN(C(=O)c3ncnc(C)c3O)CC2)c(=O)n2nc(-c3ccc4c(cnn4CC(F)F)c3)nc2n1CC(=O)Nc1ccc(C(F)(F)F)cc1Cl` [WO2025049746, Example 293], the IC50 in experiment [1] was determined as 34 nM; in experiment [2], 33 nM.
Taken in the same sequence, the figures for `CCc1c(N2CCN(C(=O)c3ncnc(C)c3O)[C@H]3CC[C@H]32)c(=O)n2nc(-c3ccc4c(c3)COC4(C)C)nc2n1CC(=O)Nc1ccc(C(F)(F)F)cc1Cl` [WO2025049746, Example 460] were 45 nM and 52 nM.
The like results for `CCc1c(N2CCN(C(=O)c3ncnc(C)c3O)CC2)c(=O)n2nc(-c3ccc4c(c3)CO[C@H]4C(F)(F)F)nc2n1CC(=O)Nc1ccc(C(F)(F)F)cc1Cl` [WO2025049746, Example 274] were, in that order, 554 nM and 493 nM.
The like results for `CCc1c(N2CCN(C(=O)c3ncnc(C)c3O)CC2)c(=O)n2nc(C3=CCOCC3)nc2n1CC(=O)NC1CC2(C1)CC2(F)F` (stereo not given) [WO2025049746, Example 366] were, in that order, 2540 nM and 4200 nM.
For `CCc1c(N2CCN(C(=O)c3ncnc(C)c3O)CC2)c(=O)n2nc(-c3cccc4c3OC(F)(F)O4)nc2n1CC(=O)Nc1ccc(C(F)(F)F)cc1Cl` [WO2025049746, Example 232], the concentration for half-maximal inhibition (IC50) is 67 nM in experiment [1] and 77 nM in experiment [2].
Take `CCc1c(N2CCN(C(=O)c3nc4n(c(=O)c3O)CCOC4)CC2)c(=O)n2nc(-c3ccc4c(c3)CCOC4)nc2n1CC(=O)Nc1ccc(C(F)(F)F)cc1Cl` [WO2025049746, Example 90]: the IC50 was found to be 29.2 nM in experiment [1] and 34.6 nM in experiment [2].
Regarding `CCc1c(N2CCN(C(=O)c3ncnc(C)c3O)CC2)c(=O)n2nc(-c3ccc4c(c3)C(=O)NC4)nc2n1CC(=O)Nc1ccc(C(F)(F)F)cc1Cl` [WO2025049746, Example 188], the IC50 in experiment [1] worked out at 30 nM; in experiment [2], 52 nM.
The like results for `CCc1c(N2CCN(C(=O)c3ncnc(C)c3O)CC2)c(=O)n2nc(-c3cc4c(cc3C)COC4)nc2n1CC(=O)Nc1ccc(C(F)(F)F)cc1Cl` [WO2025049746, Example 203] were, in that order, 56 nM and 79 nM.
In the case of `CCc1c(N2CCN(C(=O)c3ncnc(C)c3O)CC2)c(=O)n2nc(C3=CCOCC3)nc2n1CC(=O)NC12COC(C(F)(F)F)(C1)C2` [WO2025049746, Example 70], the IC50 stood at 748 nM in experiment [1] and 852 nM in experiment [2].

(Values after BindingDB's records for patent WO2025049746 (Eikon Therapeutics, 2025).)
